Drawing on PubChem BioAssay (NCI), this text covers GI50 and TGI for eight compounds.

SMILES strings stand for the structures. “And” between values parts separate entries of the source, which are not always exact repeats. Equal values may be shown once.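 Growth conditions: 96-well plates. Treatment: test compound, 48 hours, 5 concentrations. Analysis: linear interpolation between bracketing concentrations; unreached endpoints set to highest concentration. Here, GI50 denotes the concentration required for 50% inhibition of growth. Definition used: TGI = concentration required for complete inhibition of growth.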

Some test systems named below: HT29 colon; PC-3 prostate; SN12C renal; U251 CNS; OVCAR-4 ovarian; SNB-75 CNS; HL-60(TB) leukemia; A549 NSCLC; IGROV1 ovarian; NCI-H23 lung.
Holding throughout (test): growth of human tumour cells (NCI), 48 h

On to `CCn1c(=O)c(-c2ccn[nH]2)cc2c(C)nc(N)nc21`, for which the GI50 in the test with HT29 colon was 1530 nM; with PC-3 prostate, 397 nM; in the test with SN12C renal, 1400 nM; in the test with U251 CNS, 3750 nM; in the test with OVCAR-4 ovarian, 1250 nM; with SNB-75 CNS it was 182 nM. In addition, the GI50 in the test on HL-60(TB) leukemia was 2880 nM; in the test with A549 NSCLC, 1990 nM; in the test with IGROV1 ovarian, 320 nM; in the test with NCI-H23 lung it was 2070 nM. The TGI in the test with HT29 colon is > 100000 nM; with PC-3 prostate, > 100000 nM; in the test with SN12C renal it was > 100000 nM; in the test with U251 CNS, > 100000 nM; in the test with OVCAR-4 ovarian it was 44000 nM; in the test on SNB-75 CNS, 2490 nM. Also, the TGI is > 100000 nM with HL-60(TB) leukemia, 7410 nM with A549 NSCLC, 2170 nM with IGROV1 ovarian and > 100000 nM in the test with NCI-H23 lung.

Take `CCC/C(=N\NC(=S)N1CCN(c2ccccn2)CC1)c1ccccn1`: the TGI in the test with HT29 colon is > 5390 nM; with PC-3 prostate, 1260 nM; in the test with SN12C renal, 1940 nM and 1460 nM; in the test on U251 CNS it was 480 nM and 1380 nM; in the test with OVCAR-4 ovarian, > 5770 nM and 2310 nM; in the test on SNB-75 CNS, 1840 nM and 325 nM. The TGI in the test on HL-60(TB) leukemia was 45.8 nM; in the test with A549 NSCLC, > 3160 nM and 1930 nM; in the test with IGROV1 ovarian it was 2300 nM and 3110 nM; in the test with NCI-H23 lung, > 10000 nM and 2430 nM. For the same compound, the GI50 was 339 nM with SN12C renal, 39.8 nM with OVCAR-4 ovarian and 32 nM in the test with A549 NSCLC.

Regarding `CC(O)C1OC(O)C2OC(C)(C)OC12` (stereo not given), the TGI in the test on HT29 colon, in the test with PC-3 prostate, in the test with SN12C renal, in the test with U251 CNS, in the test with OVCAR-4 ovarian and in the test on SNB-75 CNS was > 100000 nM in each case. Besides, the TGI in the test with HL-60(TB) leukemia, with A549 NSCLC, in the test on IGROV1 ovarian and in the test with NCI-H23 lung was > 100000 nM throughout.

As to `CC(C)C[C@@H](NC(=O)[C@@H](Cc1ccccc1)NC(=O)c1cnccn1)B1O[C@H]2[C@H](O)[C@@H](C(=O)NCCCC[C@@H]3NC(=O)[C@@H](Cc4ccccc4)NC(=O)[C@H](CC(=O)O)NC(=O)CNC(=O)[C@H](CCCN=C(N)N)NC3=O)O[C@@H](CN)[C@H]2O1`, the GI50 is 4.18 nM and 5 nM with HT29 colon; 27.3 nM and 15.3 nM in the test with PC-3 prostate; 11.7 nM and 13 nM in the test with SN12C renal; 32.8 nM and 5.92 nM with U251 CNS; 9.35 nM and 5 nM with OVCAR-4 ovarian; 18.8 nM in the test on SNB-75 CNS. Also, the GI50 in the test with HL-60(TB) leukemia was 10.2 nM and 5 nM; in the test on A549 NSCLC, 28.8 nM and 14.8 nM; in the test with IGROV1 ovarian, 31.2 nM and 21.4 nM; with NCI-H23 lung it was 10.8 nM and 5 nM. For the same compound, the TGI is 32.5 nM and 7.63 nM with HT29 colon; 389 nM and 563 nM in the test on PC-3 prostate; 55 nM and 485 nM with SN12C renal; 218 nM and 43.1 nM in the test with U251 CNS; 451 nM and 1090 nM with OVCAR-4 ovarian; 51.6 nM in the test on SNB-75 CNS. Further, the TGI with HL-60(TB) leukemia is 69.8 nM and 74.3 nM; in the test on A549 NSCLC, 658 nM; in the test with IGROV1 ovarian it was 254 nM and 1030 nM; with NCI-H23 lung, 94.3 nM and 53.7 nM.

On to `CN(C)CCCCN1CCc2c(n(C)c3ccccc23)C1=O`, for which the TGI was 63400 nM and 37900 nM in the test with HT29 colon; > 100000 nM in the test with PC-3 prostate; > 90100 nM and 98000 nM in the test on SN12C renal; 99500 nM and > 60100 nM with U251 CNS; > 100000 nM in the test on OVCAR-4 ovarian; 71300 nM and 60800 nM in the test with SNB-75 CNS. Also, the TGI in the test on HL-60(TB) leukemia is > 100000 nM; in the test on A549 NSCLC, > 93500 nM; in the test on IGROV1 ovarian, > 100000 nM; in the test with NCI-H23 lung, > 100000 nM. The GI50 was 33000 nM and > 68700 nM with PC-3 prostate; 72400 nM and 34100 nM in the test on U251 CNS.

Regarding `Nc1c(C(=O)Nc2ccccc2)sc2nc3c(cc12)CCCCCC3`, the GI50 is 303 nM in the test with HT29 colon; 440 nM with PC-3 prostate; 1570 nM with SN12C renal; 395 nM in the test with U251 CNS; 1110 nM in the test on OVCAR-4 ovarian; 241 nM in the test with SNB-75 CNS. For the same compound, the GI50 with HL-60(TB) leukemia was 299 nM; in the test with A549 NSCLC, 467 nM; in the test on IGROV1 ovarian, 863 nM; with NCI-H23 lung, 650 nM. In addition, the TGI was 1430 nM in the test with HT29 colon; > 100000 nM in the test on PC-3 prostate; 60200 nM with SN12C renal; 7780 nM with U251 CNS; 15700 nM in the test with OVCAR-4 ovarian; 898 nM in the test on SNB-75 CNS. For the same compound, the TGI is 4550 nM with HL-60(TB) leukemia, 20100 nM with A549 NSCLC, 19900 nM in the test on IGROV1 ovarian and 16400 nM in the test on NCI-H23 lung.

Regarding `COc1ccc(C(=O)Cn2c(C(=O)c3ccc(OC)cc3)nc3ccccc32)cc1`, the GI50 was 576 nM with HT29 colon; 2430 nM in the test on PC-3 prostate; > 92900 nM in the test with SN12C renal; 3160 nM in the test on U251 CNS; 5800 nM in the test on OVCAR-4 ovarian; 2160 nM in the test with SNB-75 CNS. Besides, the GI50 in the test on HL-60(TB) leukemia was 436 nM; in the test on A549 NSCLC it was 5470 nM; in the test with IGROV1 ovarian, 5090 nM; in the test with NCI-H23 lung, 6150 nM. In addition, the TGI with HT29 colon is > 100000 nM; in the test on PC-3 prostate, > 100000 nM; in the test on SN12C renal, > 100000 nM; in the test with U251 CNS, > 100000 nM; with OVCAR-4 ovarian, > 100000 nM; in the test with SNB-75 CNS, > 54300 nM. Also, the TGI is 10800 nM in the test with HL-60(TB) leukemia, > 100000 nM with A549 NSCLC, > 100000 nM with IGROV1 ovarian and > 100000 nM in the test with NCI-H23 lung.

In the case of `O=C(Nc1ccc(S(=O)(=O)Nc2nccs2)cc1)c1cccnc1Nc1cccc(Cl)c1`, the GI50 in the test with HT29 colon is 16700 nM; with PC-3 prostate it was 14300 nM; with SN12C renal it was 12500 nM; in the test on U251 CNS, 13200 nM; with OVCAR-4 ovarian, 16300 nM; in the test with SNB-75 CNS, 9430 nM. Besides, the GI50 with HL-60(TB) leukemia was 24800 nM; in the test with A549 NSCLC, 15300 nM; in the test on IGROV1 ovarian, 15400 nM; in the test with NCI-H23 lung, 12900 nM. Also, the TGI in the test on HT29 colon was determined as 30300 nM; in the test on PC-3 prostate it was 43000 nM; in the test on SN12C renal it was 25900 nM; in the test with U251 CNS, 26100 nM; in the test on OVCAR-4 ovarian, 69300 nM; in the test on SNB-75 CNS it was 51300 nM. The TGI was 78900 nM in the test on HL-60(TB) leukemia, 39800 nM in the test on A549 NSCLC, 53000 nM in the test with IGROV1 ovarian and 28500 nM in the test with NCI-H23 lung.
